Measured values: US7994185B2, “Benzene sulfonamide thiazole and oxazole compounds” (Glaxo Smith Kline LLC, priority 2008, dated 2011)
Structures can show the parent of a compound that is named as a salt. Where two headings read alike, the source gives them in different places.

Experiments:
[1] = test system: Human colon tumor cells (Colo205); experiment: Cell growth inhibition assay (CellTiter-Glo), Colo205; assay type: cell-based
Outline: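 Luminescent ATP read-out (CellTiter-Glo) served as a proxy for cell number; percent growth inhibition was calculated against DMSO vehicle wells. Cells were treated for 3 days at 37 °C with serially diluted compound, 0.2% DMSO final.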

[2] = test system: Human melanoma cancer cells (SK-MEL-28); experiment: Cell growth inhibition assay (CellTiter-Glo), SK-MEL-28; assay type: cell-based
[3] = molecular target: T1, BRAFV600E full-length (amino acids 2-766) (Homo sapiens, UniProt P15056, V600E); experiment: B-Raf Accelerated MEK ATPase assay (BRAMA); assay type: biochemical; details: categorized
T1 construct: His6-tagged BRAFV600E full-length (amino acids 2-766); His6; made in house; host or cells: baculovirus expression system (insect cells)
T1 sequence (P15056 2-766 V600E): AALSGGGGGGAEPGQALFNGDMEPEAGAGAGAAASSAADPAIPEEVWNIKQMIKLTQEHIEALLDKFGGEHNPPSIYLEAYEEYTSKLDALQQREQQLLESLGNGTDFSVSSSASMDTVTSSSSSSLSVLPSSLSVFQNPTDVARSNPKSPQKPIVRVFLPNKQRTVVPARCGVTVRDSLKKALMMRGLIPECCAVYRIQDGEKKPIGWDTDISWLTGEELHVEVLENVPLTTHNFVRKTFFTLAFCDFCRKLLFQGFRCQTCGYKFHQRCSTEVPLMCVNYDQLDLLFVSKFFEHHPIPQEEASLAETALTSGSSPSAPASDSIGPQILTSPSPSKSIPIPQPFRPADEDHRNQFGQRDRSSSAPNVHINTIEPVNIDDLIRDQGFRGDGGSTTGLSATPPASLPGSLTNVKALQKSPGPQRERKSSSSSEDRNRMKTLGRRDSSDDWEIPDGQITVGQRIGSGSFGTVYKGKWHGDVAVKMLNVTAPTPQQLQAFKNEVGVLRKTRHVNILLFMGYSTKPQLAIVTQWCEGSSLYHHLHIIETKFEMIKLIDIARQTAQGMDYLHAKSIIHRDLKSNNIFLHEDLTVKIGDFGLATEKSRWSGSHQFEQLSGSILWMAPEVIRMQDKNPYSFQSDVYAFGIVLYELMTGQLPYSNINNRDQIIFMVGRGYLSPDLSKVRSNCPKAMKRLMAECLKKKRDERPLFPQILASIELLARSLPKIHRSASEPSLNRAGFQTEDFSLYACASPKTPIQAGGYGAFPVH
Outline: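 Coupled-enzyme readout: ADP generated by MEK-mediated ATP hydrolysis, uncoupled from ERK phosphorylation, is linked to NADH oxidation through pyruvate kinase and lactate dehydrogenase.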

[4] = COLO 205, 72 h, Table 2a, 3 days incubation, read-out: Activity in Colo205 Tumor Cells
[5] = COLO 205, Table 2b, later runs, average for the one or more runs, categorized, read-out: IC50 for Colo205
[6] = SK-MEL-28, 72 h, Table 3a, 3 days incubation, read-out: Activity in SK-MEL-28 Tumor Cells
[7] = SK-MEL-28, Table 3b, later runs, average for the one or more runs, categorized, read-out: IC50 for SK-MEL-28
[8] = B-Raf Activity, Table 1a, highest pIC50 for the one or more runs
[9] = B-Raf pIC50, Table 1b, later runs, average pIC50 for the one or more runs
[10] = Table 1b, later runs, average pIC50 for the one or more runs, read-out: B-Raf pIC50 (converted)

Structure (SMILES) | IC50 [1, 4] [nM] | IC50 [1, 5] [nM] | IC50 [2, 6] [nM] | IC50 [2, 7] [nM] | IC50 [3, 8] [nM] | IC50 [3, 9] [nM] | IC50 [3, 10] [nM]
O=S(=O)(Nc1cccc(-c2nc(N3CCOCC3)sc2-c2ccnc(NCC3CCCO3)n2)c1F)c1cc(F)ccc1F (centres unmarked) [Example 209] | < 100 | < 100 | < 100 | < 100 | < 100 | ≤ 3.16 | –
CC(C)c1nc(-c2ccc(F)c(NS(=O)(=O)c3cc(F)ccc3F)c2)c(-c2ccnc(NCCN3CCCCC3)n2)s1 [Example 131] | > 1000 | – | > 1000 | 1000 to 10000 | < 100 | 31.6 to 1000 | –
CC(C)c1nc(-c2cccc(NS(=O)(=O)c3cnn(C)c3)c2)c(-c2ccnc(NCCS(C)(=O)=O)n2)s1 [Example 35, 1-Methyl-N-{3-[2-(1-methylethyl)-5-(2-{[2-(methylsulfonyl)ethyl]amino}-4-pyrimidinyl)-1,3-thiazol-4-yl]phenyl}-1H-pyrazole-4-sulfonamide trifluoroacetic acid salt] | 100 to 1000 | 100 to 1000 | 100 to 1000 | 100 to 1000 | < 100 | – | 3.16 to 31.6
CC(C)c1nc(-c2ccc(F)c(NS(=O)(=O)c3c(F)cccc3F)c2)c(-c2ccnc(NCCN3CCS(=O)(=O)CC3)n2)s1 [Example 175] | 100 to 1000 | 100 to 1000 | 100 to 1000 | 100 to 1000 | < 100 | 31.6 to 1000 | –
CC(C)(C)c1nc(-c2cccc(NS(=O)(=O)c3c(F)cccc3F)c2F)c(-c2ccnc(CCCO)n2)s1 [Example 247, N-(3-{2-(1,1-dimethylethyl)-5-[2-(3-hydroxypropyl)-4-pyrimidinyl]-1,3-thiazol-4-yl}-2-fluorophenyl)-2,6-difluorobenzenesulfonamide] | – | < 100 | – | < 100 | – | – | 3.16 to 31.6
CC(C)(C)c1nc(-c2cccc(NS(=O)(=O)c3cc(F)ccc3F)c2Cl)c(-c2ccnc(CCS(C)(=O)=O)n2)s1 [Example 252, N-[2-chloro-3-(2-(1,1-dimethylethyl)-5-{2-[2-(methylsulfonyl)ethyl]-4-pyrimidinyl}-1,3-thiazol-4-yl)phenyl]-2,5-difluorobenzenesulfonamide] | – | < 100 | – | < 100 | – | ≤ 3.16 | –
CC(C)c1nc(-c2ccc(F)c(NS(=O)(=O)c3c(F)cccc3F)c2)c(-c2ccnc(NCC3CCCO3)n2)s1 (centres unmarked) [Example 5, 2,6-Difluoro-N-[2-fluoro-5-(2-(1-methylethyl)-5-{2-[(tetrahydro-2-furanylmethyl)amino]-4-pyrimidinyl}-1,3-thiazol-4-yl)phenyl]benzenesulfonamide] | 100 to 1000 | 1000 to 10000 | 100 to 1000 | 100 to 1000 | 100 to 1000 | 31.6 to 1000 | –
CC(C)(C)c1nc(-c2cccc(NS(=O)(=O)c3ccsc3)c2F)c(-c2ccnc(N)n2)s1 [Example 233, N-{3-[5-(2-amino-4-pyrimidinyl)-2-(1,1-dimethylethyl)-1,3-thiazol-4-yl]-2-fluorophenyl}-3-thiophenesulfonamide] | – | < 100 | – | < 100 | – | ≤ 3.16 | –
CC(C)(C)c1nc(-c2cccc(NS(=O)(=O)c3cccc(F)c3)c2F)c(-c2ccnc(N)n2)s1 [Example 218, N-{3-[5-(2-amino-4-pyrimidinyl)-2-(1,1-dimethylethyl)-1,3-thiazol-4-yl]-2-fluorophenyl}-3-fluorobenzenesulfonamide] | – | < 100 | – | < 100 | – | ≤ 3.16 | –
CC(C)c1nc(-c2ccc(F)c(NS(=O)(=O)c3cc(F)ccc3F)c2)c(-c2ccnc(NC3CCNCC3)n2)s1 [Example 125] | 100 to 1000 | 100 to 1000 | 100 to 1000 | 100 to 1000 | < 100 | – | 3.16 to 31.6
CC(C)(C)c1nc(-c2cccc(NS(=O)(=O)c3c(F)cccc3F)c2F)c(-c2ccnc(NC3CCS(=O)(=O)CC3)n2)s1 [Example 13, N-[3-(2-(1,1-Dimethylethyl)-5-{2-[(1,1-dioxidotetrahydro-2H-thiopyran-4-yl)amino]-4-pyrimidinyl}-1,3-thiazol-4-yl)-2-fluorophenyl]-2,6-difluorobenzenesulfonamide] | < 100 | < 100 | < 100 | < 100 | < 100 | ≤ 3.16 | –
Nc1nccc(-c2sc(N3CCOCC3)nc2-c2cccc(NS(=O)(=O)c3cc(F)ccc3F)c2F)n1 [Example 56, N-{3-[5-(2-Amino-4-pyrimidinyl)-2-(4-morpholinyl)-1,3-thiazol-4-yl]-2-fluorophenyl}-2,5-difluorobenzenesulfonamide] | < 100 | < 100 | < 100 | < 100 | < 100 | ≤ 3.16 | –
CS(=O)(=O)N[C@H]1CC[C@H](Nc2nccc(-c3sc(N4CCCC4)nc3-c3cccc(NS(=O)(=O)c4c(F)cccc4F)c3)n2)CC1 [Example 17, 2,6-Difluoro-N-{3-[5-[2-({trans-4-[(methylsulfonyl)amino]cyclohexyl}amino)-4-pyrimidinyl]-2-(1-pyrrolidinyl)-1,3-thiazol-4-yl]phenyl}benzenesulfonamide] | < 100 | < 100 | < 100 | < 100 | < 100 | – | 3.16 to 31.6
CC(C)c1nc(-c2ccc(F)c(NS(=O)(=O)c3ccco3)c2)c(-c2ccnc(NC3CCN(S(C)(=O)=O)CC3)n2)s1 [Example 151] | 100 to 1000 | 100 to 1000 | 100 to 1000 | 100 to 1000 | < 100 | – | 3.16 to 31.6
Cc1nccc(-c2sc(N3CCOCC3)nc2-c2cccc(NS(=O)(=O)c3cc(F)ccc3F)c2Cl)n1 [Example 28, N-{2-Chloro-3-[5-(2-methyl-4-pyrimidinyl)-2-(4-morpholinyl)-1,3-thiazol-4-yl]phenyl}-2,5-difluorobenzenesulfonamide] | < 100 | < 100 | < 100 | < 100 | < 100 | – | 3.16 to 31.6
C[C@@H]1CN(c2nc(-c3cccc(NS(=O)(=O)c4c(F)cccc4F)c3F)c(-c3ccnc(N)n3)s2)C[C@H](C)O1 [Example 143] | 100 to 1000 | 100 to 1000 | 100 to 1000 | 100 to 1000 | < 100 | – | 3.16 to 31.6
CC(C)(C)c1nc(-c2ccc(F)c(NS(=O)(=O)c3c(F)cccc3F)c2)c(-c2ccnc(N[C@H]3CC[C@H](NS(C)(=O)=O)CC3)n2)s1 [Example 16, N-(5-{2-(1,1-Dimethylethyl)-5-[2-({trans-4 [(methylsulfonyl)amino]cyclohexyl}amino)-4-pyrimidinyl]-1,3-thiazol-4-yl}-2-fluorophenyl)-2,6-difluorobenzenesulfonamide] | < 100 | < 100 | < 100 | < 100 | < 100 | – | 3.16 to 31.6
CC(C)c1nc(-c2ccc(F)c(NS(=O)(=O)c3cc(F)ccc3F)c2)c(-c2ccnc(NC3CC(C)(C)NC(C)(C)C3)n2)s1 [Example 74, 2,5-Difluoro-N-[2-fluoro-5-(2-(1-methylethyl)-5-{2-[(2,2,6,6-tetramethyl-4-piperidinyl)amino]-4-pyrimidinyl}-1,3-thiazol-4-yl)phenyl]benzenesulfonamide] | < 100 | < 100 | 100 to 1000 | 100 to 1000 | < 100 | ≤ 3.16 | –
CC(C)c1nc(-c2cccc(NS(=O)(=O)N3CCOCC3)c2)c(-c2ccnc(NCCS(C)(=O)=O)n2)s1 [Example 37, N-{3-[2-(1-Methylethyl)-5-(2-{[2-(methylsulfonyl)ethyl]amino}-4-pyrimidinyl)-1,3-thiazol-4-yl]phenyl}-4-morpholinesulfonamide trifluoroacetic acid salt] | 100 to 1000 | 100 to 1000 | 100 to 1000 | 100 to 1000 | 100 to 1000 | 31.6 to 1000 | –
Cc1nccc(-c2sc(C(C)(C)C)nc2-c2cccc(NS(=O)(=O)c3c(F)cccc3F)c2Cl)n1 [Example 239, N-{2-chloro-3-[2-(1,1-dimethylethyl)-5-(2-methyl-4-pyrimidinyl)-1,3-thiazol-4-yl]phenyl}-2,6-difluorobenzenesulfonamide] | – | < 100 | – | < 100 | – | – | 3.16 to 31.6
CC(C)CNc1nccc(-c2sc(C(C)C)nc2-c2cccc(NS(=O)(=O)c3cccnc3)c2F)n1 [Example 42, N-[2-Fluoro-3-(2-(1-methylethyl)-5-{2-[(2-methylpropyl)amino]-4-pyrimidinyl}-1,3-thiazol-4-yl)phenyl]-3-pyridinesulfonamide] | < 100 | < 100 | < 100 | < 100 | < 100 | ≤ 3.16 | –
CS(=O)(=O)N1CCC(Nc2nccc(-c3sc(C4CCOCC4)nc3-c3ccc(F)c(NS(=O)(=O)c4cc(F)ccc4F)c3)n2)CC1 [Example 70, 2,5-Difluoro-N-{2-fluoro-5-[5-(2-{[1-(methylsulfonyl)-4-piperidinyl]amino}-4-pyrimidinyl)-2-(tetrahydro-2H-pyran-4-yl)-1,3-thiazol-4-yl]phenyl}benzenesulfonamide] | 100 to 1000 | 100 to 1000 | 100 to 1000 | 100 to 1000 | < 100 | – | 3.16 to 31.6
